From patent publication US10098878B2, “HIF-2α inhibitors for treating iron overload disorders” (The Board of Regents of the University of Texas System, priority 2014, dated 2018)
Like-named read-outs stand apart in the source and are kept apart here.

Columns and labels:
786-O-Hif-Luc cells = assay: Luciferase Assay; type: cell-based; details: read-out: Luciferase EC50
Procedure: A pool of infected cells were then selected against 2 μg/mL of puromycin (P8833, Sigma) for 10 days followed by limited dilution to select single clones.
Each concentration was tested in triplicate. After about 24 hours, luciferase activity was determined using ONE-Glo Luciferase Assay Reagent (E6110, Promega) following the manufacturer's recommended procedure. EC50 were calculated by using Dotmatics software.

786-0 cells = assay: VEGF ELISA Assay; type: cell-based
Procedure: Each concentration had duplicated wells. About 20 hours later, medium was removed by suction and each well was supplied with 180 μL of growth medium. About 20 μl freshly-made 10× compound stocks were added to each well. […] The EC50 was calculated by GraphPad Prism using the dose-response-inhibition (four parameter) equation. The cell seeded plate was then subjected to CellTiter-Glo luminescence cell viability assay (Promega) by adding 50 μL of Celltiter Glo reagent into each well and shaking the plate for 8 minutes at 550 rpm (Thermomixer R, Eppendorf) then read luminescence signal in plate reader (3 second delay, 0.5 second/well integration time, Synergy 2 multi Detection Microplate reader) immediately.

[1] = target: T1, HIF-2α HIS TAG-PASB Domain (Homo sapiens, UniProt Q99814); assay: HIF-2α Scintillation Proximity Assay (SPA); type: binding; details: 100 nM HIF-2α HIS TAG-PASB Domain
T1 construct: 100 nM HIF-2α HIS TAG-PASB Domain
Summary of the method: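 IC50 values rest on percent inhibition, where the sample signal is scaled between high and low controls. Wells contain about 100 μL: compound dispensed as 2 μL of DMSO solution, 88 μL protein-probe mix and 10 μL of beads.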

[2] = 24 h, 786-O-Hif-Luc cells, about 24 hours
[3] = Homo sapiens, 786-0, 786-0 cells, VEGFA concentration in cell culture medium, read-out: VEGF ELISA EC50
[4] = 150 nM Compound 211 probe, read-out: SPA IC50
[5] = 786-O-Hif-Luc cells, about 24 hours
[6] = 786-0 cells, VEGFA concentration in cell culture medium, read-out: VEGF ELISA EC50

T1 sequence (Q99814 240-350 limits assumed): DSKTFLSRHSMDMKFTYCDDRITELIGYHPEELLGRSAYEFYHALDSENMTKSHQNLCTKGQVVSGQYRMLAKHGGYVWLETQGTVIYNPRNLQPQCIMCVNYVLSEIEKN

N#Cc1cc(Oc2ccc(S(=O)(=O)C(F)(F)F)c3c2CC(F)(F)[C@H]3O)c[n+]([O-])c1 [Compound 31, (S)-3-cyano-5-((2,2-difluoro-1-hydroxy-7-((trifluoromethyl)sulfonyl)-2,3-dihydro-1H-inden-4-yl)oxy)pyridine 1-oxide] was tested, and the EC50 (786-O-Hif-Luc cells; [2]) was 160 nM, the EC50 (786-0 cells; [3]) was 830 nM and the IC50 [1, 4] was 110 nM.

In the case of CS(=O)(=NC#N)c1ccc(Oc2cncc(C#N)c2)c2c1[C@H](O)C(F)(F)[C@@H]2F (single isomer, unassigned) [Compound 85], the EC50 (786-O-Hif-Luc cells; [5]) is reported as 114 nM, the EC50 (786-0 cells; [6]) is reported as 190 nM and the IC50 [1, 4] is reported as 32 nM.

O=S1(=O)c2ccc(Oc3cncc(Cl)c3)c(Br)c2[C@@H](O)C1(F)F [Compound 185, (R)-4-bromo-5-((5-chloropyridin-3-yl)oxy)-2,2-difluoro-3-hydroxy-2,3-dihydrobenzo[b]thiophene 1,1-dioxide] showed an EC50 (786-O-Hif-Luc cells; [2]) of 98 nM, an EC50 (786-0 cells; [3]) of 178 nM and an IC50 [1, 4] of 124 nM.

In the case of CS(=O)(=O)c1ccc(Oc2ccc(F)c(C#N)c2)c2c1[C@H](O)C(F)(F)[C@@H]2F [Compound 91, 2-Fluoro-5-(((1S,3R)-2,2,3-trifluoro-1-hydroxy-7-(methylsulfonyl)-2,3-dihydro-1H-inden-4-yl)oxy)benzonitrile], the EC50 (786-O-Hif-Luc cells; [2]) is reported as 129 nM, the EC50 (786-0 cells; [3]) is reported as 273 nM and the IC50 [1, 4] is reported as 28 nM.

N#Cc1cc(F)cc(Oc2ccc3c(c2Cl)[C@@H](O)C(F)(F)S3(=O)=O)c1 [Compound 195, (R)-3-((4-chloro-2,2-difluoro-3-hydroxy-1,1-dioxido-2,3-dihydrobenzo[b]thiophen-5-yl)oxy)-5-fluorobenzonitrile] was tested, and the EC50 (786-O-Hif-Luc cells; [2]) was 47 nM, the EC50 (786-0 cells; [3]) was 77 nM and the IC50 [1, 4] was 11 nM.

N#Cc1cc(F)cc(Oc2ccc(S(=O)(=O)CF)c3c2CC(F)(F)[C@H]3O)c1 [Compound 3, (S)-3-((2,2-difluoro-7-((fluoromethyl)sulfonyl)-1-hydroxy-2,3-dihydro-1H-inden-4-yl)oxy)-5-fluorobenzonitrile] showed an EC50 (786-O-Hif-Luc cells; [2]) of 7 nM, an EC50 (786-0 cells; [3]) of 20 nM and an IC50 ([1]; SPA IC50, 150 nM Compound 211 probe) of under 5 nM.

CS(=O)(=O)c1ccc(Oc2cc(F)cc(C#N)c2)c2c1[C@H](O)C(F)(F)[C@@H]2F [Compound 56, 3-fluoro-5-[(1S,3R)-2,2,3-trifluoro-1-hydroxy-7-methylsulfonyl-indan-4-yl]oxy-benzonitrile] showed an EC50 (786-O-Hif-Luc cells; 24 h) of 3 nM, an EC50 (786-0 cells; Homo sapiens, 786-0, read-out: VEGF ELISA EC50) of 6 nM and an IC50 [1, 4] of under 5 nM.

Compound N#Cc1cncc(Oc2ccc(S(=N)(=O)C(F)(F)F)c3c2CC(F)(F)[C@H]3O)c1 (stereo partly drawn) [Compound 78, 5-(((1S)-2,2-difluoro-1-hydroxy-7-(S-(trifluoromethyl)sulfonimidoyl)-2,3-dihydro-1H-inden-4-yl)oxy)nicotinonitrile] has an EC50 (786-O-Hif-Luc cells; [2]) of 148 nM, an EC50 (786-0 cells; [3]) of 83 nM and an IC50 [1, 4] of 25 nM.

With O=S(=O)(c1ccc(Oc2cc(F)c[n+]([O-])c2)c2c1[C@H](O)C(F)(F)C2)C(F)(F)F [Compound 74, (S)-3-((2,2-difluoro-1-hydroxy-7-((trifluoromethyl)sulfonyl)-2,3-dihydro-1H-inden-4-yl)oxonio)-5-fluoropyridine 1-oxide] the EC50 (786-O-Hif-Luc cells; [2]) was 113 nM, the EC50 (786-0 cells; [3]) was 140 nM and the IC50 [1, 4] was 16 nM.

Work on CS(=O)(=O)c1ccc(Oc2cncc(Br)c2)c2c1[C@H](O)[C@H](F)[C@@H]2F [Compound 92, (1S,2S,3R)-4-((5-Bromopyridin-3-yl)oxy)-2,3-difluoro-7-(methylsulfonyl)-2,3-dihydro-1H-inden-1-ol] yielded an EC50 (786-O-Hif-Luc cells; [2]) of 162 nM, an EC50 (786-0 cells; [3]) of 187 nM and an IC50 [1, 4] of 32 nM.

Compound CS(=O)(=O)c1ccc(Oc2cncc(F)c2)c2c1[C@H](O)C(F)(F)[C@@H]2F [Compound 93, (1S,3R)-2,2,3-trifluoro-4-((5-fluoropyridin-3-yl)oxy)-7-(methylsulfonyl)-2,3-dihydro-1H-inden-1-ol] has an EC50 (786-O-Hif-Luc cells; [2]) of 34 nM, an EC50 (786-0 cells; [3]) of 47 nM and an IC50 [1, 4] of under 5 nM.

N#Cc1c(Oc2cc(F)cc(Cl)c2)ccc2c1C(O)CS2(=O)=O (stereo not drawn) [Compound 117, 5-(3-chloro-5-fluorophenoxy)-3-hydroxy-2,3-dihydrobenzo[b]thiophene-4-carbonitrile 1,1-dioxide] showed an EC50 (786-O-Hif-Luc cells; [5]) of 451 nM, an EC50 (786-0 cells; Homo sapiens, 786-0 cells, VEGFA concentration in cell culture medium, read-out: VEGF ELISA EC50) of 333 nM and an IC50 [1, 4] of 61 nM.

CS(=O)(=O)c1ccc(Oc2cc(F)cc(Br)c2)c2c1[C@H](O)C(F)(F)C2 [Compound 68, (S)-4-(3-bromo-5-fluorophenoxy)-2,2-difluoro-7-(methylsulfonyl)-2,3-dihydro-1H-inden-1-ol] showed an EC50 (786-O-Hif-Luc cells; [2]) of 22 nM, an EC50 (786-0 cells; [3]) of 62 nM and an IC50 [1, 4] of under 5 nM.

With N#Cc1cncc(Oc2ccc(S(=N)(=O)C(F)(F)F)c3c2CC(F)(F)[C@H]3O)c1 (stereo partly drawn) [Compound 79, 5-(((1S)-2,2-difluoro-1-hydroxy-7-(S-(trifluoromethyl)sulfonimidoyl)-2,3-dihydro-1H-inden-4-yl)oxy)nicotinonitrile] the EC50 (786-O-Hif-Luc cells; [5]) was 106 nM, the EC50 (786-0 cells; [6]) was 116 nM and the IC50 [1, 4] was 23 nM.

CS(=O)(=O)c1ccc(Oc2cncc(C#N)c2)c2c1[C@H](O)C(F)(F)[C@@H]2F [Compound 106, 5-(((1S,3R)-2,2,3-trifluoro-1-hydroxy-7-(methylsulfonyl)-2,3-dihydro-1H-inden-4-yl)oxy)nicotinonitrile] showed an EC50 (786-O-Hif-Luc cells; [2]) of 88 nM, an EC50 (786-0 cells; [3]) of 95 nM and an IC50 [1, 4] of 47 nM.

For CS(=O)(=O)c1ccc(Oc2cncc(C#N)c2)c2c1[C@H](O)[C@H](F)[C@@H]2F [Compound 97, 5-(((1S,2S,3R)-2,3-difluoro-1-hydroxy-7-(methylsulfonyl)-2,3-dihydro-1H-inden-4-yl)oxy)nicotinonitrile], the EC50 (786-O-Hif-Luc cells; [2]) was 174 nM, the EC50 (786-0 cells; [3]) was 163 nM and the IC50 [1, 4] was 74 nM.

Work on O=S(=O)(c1ccc(Oc2cncc(Cl)c2)c2c1[C@H](O)C(F)(F)C2)C(F)(F)F [Compound 9, (S)-4-((5-Chloropyridin-3-yl)oxy)-2,2-difluoro-7-((trifluoromethyl)sulfonyl)-2,3-dihydro-1H-inden-1-ol] yielded an EC50 (786-O-Hif-Luc cells; [2]) of 11 nM, an EC50 (786-0 cells; [3]) of 13 nM and an IC50 [1, 4] of under 5 nM.

N#Cc1cncc(Oc2ccc(S(N)(=O)=O)c3c2[C@@H](F)C(F)(F)[C@H]3O)c1 [Compound 104, (1R,3S)-7-[(5-cyano-3-pyridyl)oxy]-1,2,2-trifluoro-3-hydroxy-indane-4-sulfonamide] was tested, and the EC50 (786-O-Hif-Luc cells; [2]) was 125 nM, the EC50 (786-0 cells; [3]) was 136 nM and the IC50 [1, 4] was 24 nM.

With CS(=O)(=NC#N)c1ccc(Oc2cncc(C#N)c2)c2c1[C@H](O)C(F)(F)[C@@H]2F (single isomer, unassigned) [Compound 83] the EC50 (786-O-Hif-Luc cells; [2]) was 83 nM, the EC50 (786-0 cells; [3]) was 95 nM and the IC50 [1, 4] was 14 nM.

With CS(=O)(=NC#N)c1ccc(Oc2cc(F)cc(C#N)c2)c2c1[C@H](O)C(F)(F)[C@@H]2F (single isomer, unassigned) [Compound 80] the EC50 (786-O-Hif-Luc cells; [2]) was 12 nM, the EC50 (786-0 cells; [3]) was 17 nM and the IC50 [1, 4] was under 5 nM.

In the case of N#Cc1cc(F)cc(Oc2ccc(C(F)(F)F)c3c2CC(F)(F)[C@H]3O)c1 [Compound 37, 3-[(1S)-2,2-Difluoro-1-hydroxy-7-(trifluoromethyl)indan-4-yl]oxy-5-fluoro-benzonitrile], the EC50 (786-O-Hif-Luc cells; [2]) is reported as 5 nM, the EC50 (786-0 cells; [3]) is reported as 6 nM and the IC50 [1, 4] is reported as under 5 nM.

For N#Cc1cncc(Oc2ccc3c(c2Br)[C@@H](O)C(F)(F)S3(=O)=O)c1 [Compound 188, (R)-5-((4-Bromo-2,2-difluoro-3-hydroxy-1,1-dioxido-2,3-dihydrobenzo[b]thiophen-5-yl)oxy)nicotinonitrile], the EC50 (786-O-Hif-Luc cells; [2]) was 96 nM, the EC50 (786-0 cells; [3]) was 327 nM and the IC50 [1, 4] was 116 nM.
